For 3 compounds, binding and Kd results are on record in paper PMC9003339 (2022).

The subject of assay [1] is Classic ATP aptamer (DNA, aptamer) ACCTGGGGGAGTATTGCGGAGGAAGGT
Nature of the assay: graphene oxide fluorescence recovery. As to conditions: 5 mM KCl, 100 mM NaCl, 1 mM MgCl2, 50 mM Tris-HCl pH 7.4, 25 °C, aptamer 300 nM.

Assay [2] deals with ATP aptamer (screened, 32 nt, 5'FAM modified) (DNA, aptamer) TGGCGTCTGCATGCAGGTCGACGCATGCGCCG
Put plainly: graphene oxide fluorescence recovery. As to conditions: 5 mM KCl, 100 mM NaCl, 1 mM MgCl2, 50 mM Tris-HCl pH 7.4, 25 °C, aptamer 300 nM.

Assay [3] concerns FAM-labeled functional chimera sequence (DNA, aptamer) TGGCGTCTGCATGCAGGTCGACGCATGCGCCGCCTGAGCTTAGAT
Nature of the assay: fluorescence recovery from graphene oxide. As to conditions: 5 mM KCl, 100 mM NaCl, 1 mM MgCl2; 50 mM Tris-HCl pH 7.4, 25 °C; chimera 2 μM, ATP 1 mM.

The test system of assay [4] is Functional chimera sequence (DNA, aptamer) TGGCGTCTGCATGCAGGTCGACGCATGCGCCGCCTGAGCTTAGAT
Nature of the assay: release from graphene oxide, PAGE. As to conditions: 5 mM KCl, 100 mM NaCl, 1 mM MgCl2; 50 mM Tris-HCl pH 7.4, 25 °C; chimera 2 μM, ATP 1 mM.

In assay [5] the test system is ATP aptamer (screened, 32 nt, 5'FAM modified) (DNA, aptamer) TGGCGTCTGCATGCAGGTCGACGCATGCGCCG
Put plainly: graphene oxide fluorescence assay, aptamer titrated at fixed ATP. The conditions noted are these: 5 mM KCl, 100 mM NaCl, 1 mM MgCl2, 50 mM Tris-HCl pH 7.4, 25 °C, aptamer 50–500 nM, 1 μL of 100 mM in 200 μL.

Usually Kd stands for the equilibrium constant for the complex coming apart. A low value points to tighter binding.

With `Nc1ncnc2c1ncn2[C@@H]1O[C@H](COP(=O)(O)O)[C@@H](O)[C@H]1O`, the binding result in assay [1] (1 μL of 100 mM AMP) is “yes”; in assay [2] (1 μL of 100 mM AMP, ATP 4.7-fold higher) it was “weak”.
For the compound `Nc1ncnc2c1ncn2[C@@H]1O[C@H](COP(=O)(O)OP(=O)(O)O)[C@@H](O)[C@H]1O`, the binding entry in assay [1] (1 μL of 100 mM ADP) is listed as “yes”; in assay [2] (1 μL of 100 mM ADP, ATP 2.4-fold higher), “weak”.
For `Nc1ncnc2c1ncn2[C@@H]1O[C@H](COP(=O)(O)OP(=O)(O)OP(=O)(O)O)[C@@H](O)[C@H]1O`, the binding entry in assay [1] (1 μL of 100 mM ATP), in assay [3] and in assay [4] was “yes” throughout. Further, the Kd in assay [5] is recorded as 70.61 ± 20.91 nM.
